Experimental data taken from ChEMBL document CHEMBL4376802, “State of the Art in Respiratory Syncytial Virus Drug Discovery and Development” (J Med Chem, 2019).

Key:
Human orthopneumovirus [1] = assay: Antiviral activity against RSV A2 infected in A549 cells incubated for 3 days by cell titer glo-based luminescence assay; type: functional, organism-based; details: human respiratory syncytial virus, A2, A549, 72 h
Human orthopneumovirus [2] = assay: Antiviral activity against RSV A2 infected in Hep2 cells preincubated for 1 hr followed by RSV infection and measured after 3 days by ELISA method; type: functional, organism-based; details: human respiratory syncytial virus, A2, HEp-2
[3] = Antiviral activity against RSV B-WST infected in Hep2 cells preincubated for 1 hr followed by RSV infection and measured after 3 days by ELISA method; type: functional, cell-based; details: human respiratory syncytial virus, HEp-2
[4] = system: Respiratory syncytial virus; assay: Antiviral activity against Respiratory syncytial virus; type: functional, organism-based; details: human respiratory syncytial virus
Human orthopneumovirus [5] = assay: Antiviral activity against RSV A2 infected in HAE-derived cells; type: functional, organism-based; details: human respiratory syncytial virus
[6] = system: Respiratory syncytial virus; assay: Antiviral activity against Respiratory syncytial virus by CPE reduction assay; type: functional, organism-based; details: human respiratory syncytial virus
[7] = system: Respiratory syncytial virus; assay: Antiviral activity against recombinant RSV infected in HeLa cells assessed as reduction in eGFP expression after 3 days by laser microscopic analysis; type: functional, organism-based; details: human respiratory syncytial virus, 72 h
[8] = Antiviral activity against RSV B-WST infected in Hep2 cells CPE reduction assay; type: functional, cell-based; details: human respiratory syncytial virus, HEp-2
Human orthopneumovirus [9] = assay: Antiviral activity against RSV A2 infected in Hep2 cells by CPE reduction assay; type: functional, organism-based; details: human respiratory syncytial virus, A2, HEp-2
[10] = Inhibition of Respiratory syncytial virus RNA-dependent RNA polymerase
[11] = Oral bioavailability in BALB/c mouse; type: ADME, organism-based; details: in vivo
Human orthopneumovirus [12] = assay: Antiviral activity against HRSV expressing m-cherry infected in Hep2 cells after 48 hrs post infection by fluorescence based assay; type: functional, organism-based; details: human respiratory syncytial virus, HEp-2, 48 h
[13] = Oral bioavailability in rat; type: ADME, organism-based; details: in vivo
[14] = Oral bioavailability in dog; type: ADME, organism-based, Canis lupus familiaris; details: in vivo
Human respirovirus 3 = assay: Antiviral activity against Human parainfluenza virus 3; type: functional, organism-based
Influenza A virus = assay: Antiviral activity against influenza A virus; type: functional, organism-based
Hepatitis C virus = assay: Antiviral activity against Hepatitis C virus; type: functional, organism-based, Hepacivirus hominis
Human orthopneumovirus [15] = assay: Antiviral activity against RSV type A; type: functional, organism-based; details: human respiratory syncytial virus
Human orthopneumovirus [16] = assay: Antiviral activity against RSV type B; type: functional, organism-based; details: human respiratory syncytial virus
[17] = Antiviral activity against RSV type A Memphis 37 infected in Hep2 cells assessed as reduction in virus-induced cytopathic effect after 5 days by resazurin dye based PCR analysis; type: functional, cell-based; details: human respiratory syncytial virus, Memphis 37, HEp-2, 120 h
[18] = Antiviral activity against RSV B-WST infected in Hep2 cells assessed as reduction in virus-induced cytopathic effect after 6 days by resazurin dye based PCR analysis; type: functional, cell-based; details: human respiratory syncytial virus, HEp-2, 144 h
[19] = Antiviral activity against RSV type A 492 infected in Hep2 cells assessed as reduction in virus-induced cytopathic effect after 5 days by resazurin dye based PCR analysis; type: functional, cell-based; details: human respiratory syncytial virus, 492, HEp-2, 120 h
Human orthopneumovirus [20] = assay: Antiviral activity against RSV A2 infected in Hep2 cells assessed as reduction in virus-induced cytopathic effect after 5 days by resazurin dye based PCR analysis; type: functional, organism-based; details: human respiratory syncytial virus, A2, HEp-2, 120 h
[21] = Antiviral activity against RSV type A 689 infected in Hep2 cells assessed as reduction in virus-induced cytopathic effect after 5 days by resazurin dye based PCR analysis; type: functional, cell-based; details: human respiratory syncytial virus, 689, HEp-2, 120 h
[22] = Antiviral activity against RSV type A 1211 infected in Hep2 cells assessed as reduction in virus-induced cytopathic effect after 5 days by resazurin dye based PCR analysis; type: functional, cell-based; details: human respiratory syncytial virus, 1211, HEp-2, 120 h
[23] = Antiviral activity against RSV type A VAN1160 infected in Hep2 cells assessed as reduction in virus-induced cytopathic effect after 5 days by resazurin dye based PCR analysis; type: functional, cell-based; details: human respiratory syncytial virus, VAN1160, HEp-2, 120 h
[24] = Antiviral activity against RSV type B 1276 infected in Hep2 cells assessed as reduction in virus-induced cytopathic effect after 5 days by resazurin dye based PCR analysis; type: functional; details: human respiratory syncytial virus, 1276, HEp-2, 120 h; pooled result: one value given for 5 cell lines, strains, targets or settings
Human orthopneumovirus [25] = assay: Antiviral activity against RSV A infected in HeLa cells; type: functional, organism-based; details: human respiratory syncytial virus, type A
[26] = Antiviral activity against RSV B infected in HeLa cells; type: functional, cell-based; details: human respiratory syncytial virus
[27] = Plasma clearance in Beagle dog at 2 mg/ml, iv or 1.2 mg/ml, po measured up to 24 hrs by LC-MS/MS analysis; type: ADME, organism-based, Canis lupus familiaris
[28] = Oral bioavailability in mouse; type: ADME, organism-based; details: in vivo
[29] = Antiviral activity against Respiratory syncytial virus B plaque reduction assay; type: functional, Human respiratory syncytial virus B
Human orthopneumovirus [30] = assay: Antiviral activity against Respiratory syncytial virus A plaque reduction assay; type: functional, organism-based

## O=c1n(Cc2nc(-c3nccs3)cn2CCCCO)c2cnccc2n1C1CC1
Human orthopneumovirus [1]
  EC50: 58 nM

## O=C(NC1CC1)c1cc2c(s1)-c1ccccc1N(C(=O)c1ccc(NC(=O)c3cccnc3N3CCC4(CC3)COC4)cc1)CC2
Human orthopneumovirus [2]
  EC50: 10 nM
[3]
  EC50: > 50000 nM

## Cc1ccc(NS(C)(=O)=O)c(C(=O)N2CCCC[C@H]2c2cc3nc4c(c(N5CCOCC5)n3n2)CCCC4)c1
[4]
  EC50: 0.56 nM

## CC1(C(=O)N2CC3(C2)C(=O)N(Cc2nc4c(n2CCCC(F)(F)F)CCCC4)c2ccccc23)CC1
Human orthopneumovirus [1]
  EC50: < 100 nM

## CNc1nc(N)nc2c1ncn2[C@@H]1O[C@](C)(CO[P@@](=O)(N[C@@H](C)C(=O)OC(C)C)Oc2ccccc2)[C@@H](O)[C@H]1F
Human orthopneumovirus [5]
  EC50: 0.052 nM

## CC(C)OC(=O)N1CCC2(CC1)C(=O)N(Cc1nc3cc(Cl)ccc3n1CCCC#N)c1cnccc12
[6]
  EC50: 0.024 nM

## O=c1n(Cc2cc3cnccc3n2CCCC(F)(F)F)c2cnccc2n1CC(F)(F)F
[7]
  EC50: 0.25 nM

## CC(C)CCn1c(Cn2c(=O)n(C3CCN(S(C)(=O)=O)CC3)c3ccccc32)nc(=O)c2ccccc21
[6]
  EC50: 5.8 nM

## CCc1cc(C(=O)N2CCc3sccc3[C@H]2C)nc2cc(-c3ccc(N4CC[C@H](C(=O)O)C4)cc3F)nn12
[4]
  EC50: 2.75 nM

## O=c1n(Cc2cc3cc(Cl)ccc3n2CCCCO)c2cnccc2n1C1CC1
[7]
  EC50: 2 nM

## Cc1cc2n(Cc3nc(OCC4CCOC4)c4cc(C#N)ccc4n3)c(=O)c3ccccc3n2n1 (configuration not stated)
[6]
  EC50: 2.8 nM

## CC(C)CCn1c(CN2C(=O)C3(CC3)c3ccccc32)nc2cc(CN)ccc21
[4]
  EC50: 31 nM

## Cc1cn(Cc2nc3ccccc3s2)c(=O)n(Cc2ccc(-c3csnn3)cc2)c1=O
[8]
  EC50: > 50000 nM
Human orthopneumovirus [9]
  EC50: 1600 nM

## O=C(NC1CC1)c1cc2c(s1)-c1ccccc1N(C(=O)c1ccc(NC(=O)c3ccccc3-c3ccccc3)cc1)CC2
Human orthopneumovirus [2]
  EC50: 750 nM
[3]
  EC50: > 20000 nM

## COC(=O)N1CC2(C1)C(=O)N(Cc1ncc3cc(C)ccc3c1-c1cncnc1)c1ccccc12
[6]
  EC50: 0.2 nM

## COc1cc(C(=O)NC[C@@](O)(c2cc3c(c(-c4ccc(F)cc4)n2)NC[C@@]3(C)N)C(F)(F)F)ccc1OCCO
[4]
  EC50: < 1000 nM
[10]
  IC50: < 1000 nM

## Cc1cccc(-c2ccc([C@@H]3[C@@H](CO)N4CCCCN(S(=O)(=O)c5cn(C)cn5)C[C@@H]34)cc2)c1
[8]
  EC50: > 50000 nM
Human orthopneumovirus [9]
  EC50: 3300 nM

## NC1CCN(c2ncc(CN3C(=O)C4(CC4)c4ccc(F)cc43)c(NCCCO)n2)C1 (configuration not stated)
Human orthopneumovirus [1]
  EC50: 34 nM

## CCc1ccc(NS(C)(=O)=O)c(C(=O)N(C)[C@@H](CC)c2cc3nc(N4CC[C@H](N)C4)c(C)cn3n2)c1
[4]
  EC50: 0.15 nM

## CC(C)OC(=O)N1CC2(C1)C(=O)N(Cc1nc3cc(Br)ccc3n1CCCO)c1ccccc12
[11]
  bioavailability: 72%
[6]
  EC50: 0.8 nM

## c1coc(-c2nn3c(Cn4cnc5ccccc54)nnc3s2)c1
[4]
  EC50: 660 nM

## Cc1cccc2ncnc(N3CCCC[C@H]3c3cc4nc(N5CCC5)cc(N5CCOCC5)n4n3)c12
[4]
  EC50: 10 nM

## O=C1N(Cc2nc3cc(Cl)ccc3n2C2CCS(=O)(=O)C2)c2cnccc2C12CC2 (configuration not stated)
[6]
  EC50: 1.9 nM

## N#Cc1ccc(-c2ccc3c(c2)[C@H]2[C@H](CCN2C(=O)c2ccccc2F)[C@H](CO)N3)cc1
[8]
  EC50: 6800 nM
Human orthopneumovirus [9]
  EC50: 1400 nM

## O=C(O)c1cc(C(=O)O)n(Cc2ccc(Cl)cc2Cl)n1
Human orthopneumovirus [12]
  EC50: 122000 nM

## Cc1ccc([C@]23Cn4cccc4C(=O)N2CCN3C(=O)c2conc2C)cn1
[13]
  bioavailability: 59%
Human orthopneumovirus [5]
  EC50: 8.4 nM
[14]
  bioavailability: 100%

## Nc1ccn([C@@H]2O[C@@](CO)(CCl)[C@@H](O)[C@H]2F)c(=O)n1 [ALS-8112]
Human respirovirus 3
  EC50: 1300 nM
Influenza A virus
  EC50: > 100000 nM
Hepatitis C virus
  EC50: > 100000 nM
Human orthopneumovirus [15]
  EC50: 90 to 450 nM
Human orthopneumovirus [16]
  EC50: 90 to 450 nM

## Cc1cnc(N2CC3(CCOCC3)C2)c(C(=O)Nc2ccc(C(=O)N3CCc4cc(C(=O)Nc5c(C)cccc5F)sc4-c4ccccc43)cc2)c1 [PC-786]
[17]
  EC50: 0.46 nM
[18]
  EC50: 27.3 nM
[19]
  EC50: 0.46 nM
Human orthopneumovirus [20]
  EC50: 0.5 nM
[21]
  EC50: 0.46 nM
[22]
  EC50: 0.46 nM
[23]
  EC50: 0.46 nM
[24]
  EC50: 20.2 nM

## CS(=O)(=O)CCCn1c(Cn2c(=O)n(CC(F)(F)F)c3ccncc32)cc2cc(Cl)ccc21 [RILEMATOVIR]
Human orthopneumovirus [25]
  EC50: 0.2 to 20 nM
[26]
  EC50: 0.2 to 20 nM
[7]
  EC50: 0.46 to 0.5 nM
[27]
  clearance: 9 mL/min/kg

## NCc1ccc2c(c1)nc(CN1C(=O)C3(CC3)c3ccc(F)cc31)n2CCCC(F)(F)F [SISUNATOVIR]
[28]
  bioavailability: 46%
[14]
  bioavailability: 63%
[29]
  EC50: 0.1 to 1.4 nM
Human orthopneumovirus [30]
  EC50: 0.1 to 1.4 nM

## O=C1Nc2ccccc2C(c2ccccc2)=N[C@@H]1Nc1nnc(-c2ncc(C(F)(F)F)cc2N2CCOCC2)o1 [ZELICAPAVIR]
[4]
  EC50: < 400 nM
